“And” between values parts separate entries of the source, which are not always exact repeats. Identical values can stand only once. Like-named read-outs stand apart in the source and are kept apart here.
What was measured:
[1] = target: T1, wild-type (wt) GluN1/GluN2B receptors (UniProt P35439+Q01097); assay: TEVC recordings in Xenopus oocytes, allosteric modulator sensitivity; type: cell-based, rat (GluN1), mouse (GluN2B)
T1 construct: For full-length multimeric membrane-embedded receptors studied in cellulo, as done in the present work; expressed in transfected cells; host or cells: Xenopus laevis oocytes (nuclear cDNA injection, pcDNA3 plasmids)
T1 sequence (Q01097 27-1482, other chains not shown): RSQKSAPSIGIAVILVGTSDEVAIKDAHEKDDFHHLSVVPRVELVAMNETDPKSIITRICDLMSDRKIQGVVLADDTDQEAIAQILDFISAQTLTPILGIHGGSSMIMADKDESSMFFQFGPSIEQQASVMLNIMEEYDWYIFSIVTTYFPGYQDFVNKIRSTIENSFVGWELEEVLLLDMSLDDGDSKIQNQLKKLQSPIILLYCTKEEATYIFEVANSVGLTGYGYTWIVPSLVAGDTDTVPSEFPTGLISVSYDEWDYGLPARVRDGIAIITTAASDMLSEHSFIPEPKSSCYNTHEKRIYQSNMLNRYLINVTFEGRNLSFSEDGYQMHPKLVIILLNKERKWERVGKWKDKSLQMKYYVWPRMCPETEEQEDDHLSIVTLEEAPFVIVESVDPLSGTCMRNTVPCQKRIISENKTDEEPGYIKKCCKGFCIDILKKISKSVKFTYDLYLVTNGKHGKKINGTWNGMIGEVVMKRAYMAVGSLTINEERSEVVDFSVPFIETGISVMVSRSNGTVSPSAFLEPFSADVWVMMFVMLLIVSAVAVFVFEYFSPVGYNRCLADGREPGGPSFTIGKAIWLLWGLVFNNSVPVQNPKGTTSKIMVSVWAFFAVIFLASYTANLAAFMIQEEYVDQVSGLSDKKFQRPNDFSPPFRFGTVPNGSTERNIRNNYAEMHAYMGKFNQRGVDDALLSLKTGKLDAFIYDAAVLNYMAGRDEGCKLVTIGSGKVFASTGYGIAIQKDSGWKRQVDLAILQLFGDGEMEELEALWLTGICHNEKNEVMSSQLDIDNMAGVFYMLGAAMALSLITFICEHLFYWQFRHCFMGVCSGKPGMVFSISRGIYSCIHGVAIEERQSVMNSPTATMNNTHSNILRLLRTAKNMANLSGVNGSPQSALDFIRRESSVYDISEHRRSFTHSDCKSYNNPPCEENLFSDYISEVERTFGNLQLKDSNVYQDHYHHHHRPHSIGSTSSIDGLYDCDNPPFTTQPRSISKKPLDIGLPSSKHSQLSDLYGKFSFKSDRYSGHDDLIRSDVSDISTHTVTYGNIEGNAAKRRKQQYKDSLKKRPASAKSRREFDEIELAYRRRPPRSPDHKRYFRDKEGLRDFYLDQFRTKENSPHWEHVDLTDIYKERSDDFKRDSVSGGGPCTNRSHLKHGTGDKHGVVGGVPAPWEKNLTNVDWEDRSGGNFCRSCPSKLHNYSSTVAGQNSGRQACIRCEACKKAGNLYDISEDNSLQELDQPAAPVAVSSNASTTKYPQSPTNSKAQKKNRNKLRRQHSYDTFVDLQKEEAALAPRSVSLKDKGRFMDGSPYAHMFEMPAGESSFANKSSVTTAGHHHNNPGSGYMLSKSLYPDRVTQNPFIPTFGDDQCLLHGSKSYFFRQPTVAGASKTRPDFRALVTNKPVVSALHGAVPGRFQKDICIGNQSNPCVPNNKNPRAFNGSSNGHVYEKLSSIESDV
Method: (§1) The pcDNA3-based expression plasmids for rat GluN1-1a (named GluN1 herein), rat GluN2A, and mouse GluN2B (also known as ε2) subunits, Pfu-based site-directed mutagenesis strategy, and sequencing procedure have been described previously[68],[69]. Incorporation of the unnatural amino acids (UAAs) AzF and BzF into NMDARs was performed using the genetic code expansion methodology as previously described[52],[53],[83]. The plasmid pSVB.Yam carrying the gene encoding the amber suppressor tRNA derived from B. stearothermophilus Tyr-tRNACUA, while the aminoacyl-tRNA synthetases (aaRS) construction for AzF and BzF derived from E. coli TyrRS[84],[85].
(§2) Recombinant NMDARs were expressed in Xenopus laevis oocytes after nuclear injection of 36 nl of a mixture of cDNAs (at 10–30 ng/μl) encoding various GluN1 and GluN2 subunits (ratio 1:1). Oocytes were prepared, injected, incubated, and voltage-clamped as described previously. For UAA incorporation, oocytes were co-injected with 36 nl of a cDNA mixture encoding for of GluN1, GluN2, Yam, and aaRS as follows, unless otherwise indicated in the text: GluN1-K178amber (120 ng/μl), GluN2A (80 ng/µl) or GluN2B (120 ng/μl), Yam (10 ng/μl), AzF-RS (5 ng/μl). After injection, oocytes were incubated at 19 °C in a Barth solution containing (in mM) 88 NaCl, 1 KCl, 0.33 Ca(NO3)2, 0.41 CaCl2, 0.82 MgSO4, 2.4 NaHCO3, 10 HEPES (pH adjusted to 7.6 with NaOH) supplemented with gentamicin ([…]) and the NMDAR glutamate binding site competitive antagonist D-APV (50 μM). AzF and BzF were added to the incubation medium at final concentrations of 1 mM and 2 mM, respectively.
(§3) For all experiments, except those on pH and spermine sensitivity, the standard external solution contained (in mM): 100 NaCl, 0.3 BaCl2, and 5 HEPES (pH adjusted to 7.3 with KOH). […] For the pH and spermine sensitivity experiments, an external solution enriched in HEPES was used to insure proper pH buffering. Unless otherwise mentioned, NMDAR-mediated currents were induced by simultaneously applications of saturating concentrations of glutamate and glycine (100 μM each). Glutamate and glycine dose-response curves (DRC) were performed in the presence of 100 µM glycine and 100 µM glutamate, respectively. Recordings were performed at a holding potential of −60 mV and at room temperature. Data were collected and analyzed using Clampex 10.5 and Clampfit 10.5 (Molecular Devices), respectively, and fitted using KaleidaGraph 4.0 (Synergy software).
(§4) EC50 and nH were fitted as free parameters. […] For proton DRC, corrections for small shifts in the reference potential of bath electrodes and analysis of the data were performed as previously described. Spermine experiments were performed and analyzed as previously described. In brief, spermine sensitivity was assessed at pH 6.5 and at a holding potential of −30 mV to maximize the spermine induced potentiation. […] EC50, a and nH were set as free parameters. MK-801 is an NMDAR open channel blocker with slow reversibility and, consequently, the rate at which MK-801 inhibits NMDAR responses depends on the level of channel activity, that is, channel open probability (Po). Based on this principle, MK-801 is classically used to estimate the level of NMDAR channel activity in macroscopic whole-cell recordings[36],[47],[56],[86],[87]. Note, however, that MK- 801 inhibition kinetics can index relative, not absolute, Po. MK-801 solutions (10 nM for GluN2A-containing receptors and 50 nM for GluN2B-containing receptors) were prepared by dilution of a stock solution (50 mM) into the agonist containing solutions. MK-801 time constants of inhibition (τon) were obtained by fitting currents with a single-exponential component to a time window corresponding to 10–90% of maximum inhibition. On-rate (kon) constants were then calculated assuming a pseudo first-order reaction scheme: kon = 1 / ([MK-801]*τon).

[2] = target: T2, GluN1-K178AzF/GluN2B receptors (UniProt P35439+Q01097, K178F); assay: TEVC recordings in Xenopus oocytes, modulator sensitivity before and after UV photocrosslinking; type: cell-based, rat (GluN1), mouse (GluN2B); settings: for Isper/Io 20 μM: 20 μM spermine; for Isper/Io 20 μM / Isper/Io 200 μM / Isper/Io 1000 μM / spermine maximal potentiation / spermine nH / EC50: pH 6.5, -30 mV; for Isper/Io 200 μM: 200 μM spermine; for Isper/Io 1000 μM: 1000 μM spermine; for EC50: read-out: spermine EC50
T2 construct: For full-length multimeric membrane-embedded receptors studied in cellulo, as done in the present work; expressed in transfected cells; host or cells: Xenopus laevis oocytes, co-injected with amber suppressor tRNA (Yam) and AzF-RS
T2 sequence (Q01097 27-1482, other chains not shown): as above
Method: as §1, §2, §3, §4

[3] = target: T3, GluN1-N512C-L777C/GluN2B-E517C-L781C receptors (UniProt P35439+Q01097, E517C/L777C/L781C/N521C); assay: TEVC recordings in Xenopus oocytes, zinc and ifenprodil inhibition dose-response; type: cell-based, rat (GluN1), mouse (GluN2B)
T3 construct: For full-length multimeric membrane-embedded receptors studied in cellulo, as done in the present work; expressed in transfected cells; host or cells: Xenopus laevis oocytes
Method: as §1, §2, §3, §4

[4] = target: T4, GluN1/GluN2B-N218C receptors (UniProt P35439+Q01097, N218C); assay: as above; type: cell-based, rat (GluN1), mouse (GluN2B)
T4 construct: For full-length multimeric membrane-embedded receptors studied in cellulo, as done in the present work; expressed in transfected cells; host or cells: Xenopus laevis oocytes
Method: as §1, §2, §3, §4

[5] = target: T5, GluN1-K178AzF/GluN2A receptors (Rattus norvegicus, UniProt P35439+Q00959, K178F); assay: TEVC recordings in Xenopus oocytes, modulator sensitivity before and after UV photocrosslinking; type: cell-based
T5 construct: For full-length multimeric membrane-embedded receptors studied in cellulo, as done in the present work; expressed in transfected cells; host or cells: Xenopus laevis oocytes, co-injected with amber suppressor tRNA (Yam) and AzF-RS
T5 sequence (Q00959 23-1464, other chains not shown): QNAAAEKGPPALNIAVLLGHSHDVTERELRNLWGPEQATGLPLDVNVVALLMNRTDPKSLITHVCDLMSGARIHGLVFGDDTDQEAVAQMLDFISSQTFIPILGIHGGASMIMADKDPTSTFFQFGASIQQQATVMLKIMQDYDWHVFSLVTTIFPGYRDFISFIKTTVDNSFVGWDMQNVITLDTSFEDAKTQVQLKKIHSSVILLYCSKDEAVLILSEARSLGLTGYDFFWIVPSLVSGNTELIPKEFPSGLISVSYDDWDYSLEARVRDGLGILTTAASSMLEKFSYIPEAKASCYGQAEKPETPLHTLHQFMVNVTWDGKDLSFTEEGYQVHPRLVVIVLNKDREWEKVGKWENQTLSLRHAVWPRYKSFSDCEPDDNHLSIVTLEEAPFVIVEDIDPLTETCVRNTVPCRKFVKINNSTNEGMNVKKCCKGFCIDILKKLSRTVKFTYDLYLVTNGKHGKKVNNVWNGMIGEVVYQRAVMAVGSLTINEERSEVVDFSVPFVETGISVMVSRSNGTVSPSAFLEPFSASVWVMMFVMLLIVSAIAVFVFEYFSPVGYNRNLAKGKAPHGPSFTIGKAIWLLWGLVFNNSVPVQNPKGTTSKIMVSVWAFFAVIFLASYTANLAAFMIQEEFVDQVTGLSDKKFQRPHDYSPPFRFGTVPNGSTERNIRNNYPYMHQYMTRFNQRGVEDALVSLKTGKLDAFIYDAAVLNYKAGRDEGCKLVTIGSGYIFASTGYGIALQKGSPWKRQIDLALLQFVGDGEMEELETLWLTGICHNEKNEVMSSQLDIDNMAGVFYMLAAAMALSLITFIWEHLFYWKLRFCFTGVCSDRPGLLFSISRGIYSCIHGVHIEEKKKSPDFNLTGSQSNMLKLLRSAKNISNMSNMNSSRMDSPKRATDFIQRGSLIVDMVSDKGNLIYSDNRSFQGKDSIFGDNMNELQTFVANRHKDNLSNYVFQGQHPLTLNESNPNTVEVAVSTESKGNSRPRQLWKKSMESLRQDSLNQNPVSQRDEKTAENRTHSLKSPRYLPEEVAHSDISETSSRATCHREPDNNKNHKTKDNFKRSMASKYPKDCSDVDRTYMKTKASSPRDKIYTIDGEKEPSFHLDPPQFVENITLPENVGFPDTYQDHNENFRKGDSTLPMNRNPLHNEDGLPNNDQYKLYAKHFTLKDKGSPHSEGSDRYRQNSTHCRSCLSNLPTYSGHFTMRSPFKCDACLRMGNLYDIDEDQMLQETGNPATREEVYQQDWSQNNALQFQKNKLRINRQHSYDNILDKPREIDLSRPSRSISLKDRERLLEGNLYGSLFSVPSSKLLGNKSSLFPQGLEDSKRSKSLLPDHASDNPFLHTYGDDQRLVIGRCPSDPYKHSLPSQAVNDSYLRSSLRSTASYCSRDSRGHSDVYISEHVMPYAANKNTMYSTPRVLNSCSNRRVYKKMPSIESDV
Method: as §1, §2, §3, §4

[6] = pH 8.3 (second column so headed), +UV
[7] = pH 6.5, holding potential -30 mV

## CC(C(O)c1ccc(O)cc1)N1CCC(Cc2ccccc2)CC1 (centres unmarked) [ifenprodil, Ifenprodil]
[1]
  ifenprodil Hill slope (nH): 1.22 ± 0.04 and 1.14 ± 0.11 and 1.11 ± 0.07
  ifenprodil maximal inhibition: 0.95 ± 0.02 and 0.93 ± 0.01
[2]; after UV
  ifenprodil Hill slope (nH): 1.25 ± 0.11
  ifenprodil maximal inhibition: 0.54 ± 0.06
[2]; before UV
  ifenprodil Hill slope (nH): 1.25 ± 0.39
  ifenprodil maximal inhibition: 0.98 ± 0.09
[3]
  ifenprodil Hill slope (nH): 0.83 ± 0.13
  ifenprodil maximal inhibition: 0.76 ± 0.03
[4]
  ifenprodil Hill slope (nH): 1.08 ± 0.06
  ifenprodil maximal inhibition: 0.99 ± 0.02

## [1H+] [proton]
[5]; after UV
  pHIC50 (proton sensitivity): 7.01 ± 0.01
  proton Hill slope (nH): 1.93 ± 0.07
[5]; before UV
  pHIC50 (proton sensitivity): 7.00 ± 0.02
  proton Hill slope (nH): 1.91 ± 0.11
[5]; pH 6.3, +UV
  proton, relative current at pH 6.3: 0.04 ± 0.01
[5]; pH 6.3, -UV
  proton, relative current at pH 6.3: 0.04 ± 0.01
[5]; pH 7.3, +UV
  proton, relative current at pH 7.3: 0.78 ± 0.03
[5]; pH 7.3, -UV
  proton, relative current at pH 7.3: 0.79 ± 0.03
[5]; [6]
  proton, relative current at pH 8.3: 1.00 ± 0.02
[5]; pH 8.3, +UV
  proton, relative current at pH 8.3: 0.99 ± 0.02
[5]; pH 8.3, -UV
  proton, relative current at pH 8.3: 0.99 ± 0.02
[5]; pH 9.3, -UV
  proton, relative current at pH 9.3: 1.01 ± 0.04
[2]; after UV
  pHIC50 (proton sensitivity): 6.90 ± 0.02
  proton Hill slope (nH): 0.99 ± 0.03
[2]; before UV
  pHIC50 (proton sensitivity): 7.60 ± 0.01
  proton Hill slope (nH): 1.37 ± 0.05
[2]; pH 6.3, +UV
  proton, relative current at pH 6.3: 0.21 ± 0.09
[2]; pH 6.3, -UV
  proton, relative current at pH 6.3: 0.03 ± 0.02
[2]; pH 7.3, +UV
  proton, relative current at pH 7.3: 0.71 ± 0.02
[2]; pH 7.3, -UV
  proton, relative current at pH 7.3: 0.28 ± 0.04
[2]; [6]
  proton, relative current at pH 8.3: 0.98 ± 0.01
[2]; pH 8.3 (second column so headed), -UV
  proton, relative current at pH 8.3: 1.00 ± 0.03
[2]; pH 8.3, +UV
  proton, relative current at pH 8.3: 0.97 ± 0.03
[2]; pH 8.3, -UV
  proton, relative current at pH 8.3: 0.90 ± 0.04
[2]; post-UV vs pre-UV
  rightward shift in the pH dose-response curve: > 0.5 pH-unit

## NCCCNCCCCNCCCN [spermine]
[1]; 20 μM spermine, pH 6.5, -30 mV
  Isper/Io 20 μM: 1.74 ± 0.06
[1]; 200 μM spermine, pH 6.5, -30 mV
  Isper/Io 200 μM: 6.89 ± 0.52
[1]; 1000 μM spermine, pH 6.5, -30 mV
  Isper/Io 1000 μM: 12.55 ± 0.41
[1]; [7]
  spermine maximal potentiation: 11.2 ± 3.3
  spermine nH: 1.26 ± 0.09
[1]; pH 6.5, holding potential -30 mV, read-out: spermine EC50
  EC50: 174 ± 64.5 µM
[2]; +UV
  Isper/Io 20 μM: 1.24 ± 0.03
  Isper/Io 200 μM: 2.12 ± 0.26
  Isper/Io 1000 μM: 2.49 ± 0.42
[2]; -UV
  Isper/Io 20 μM: 2.11 ± 0.15
  Isper/Io 200 μM: 13.65 ± 1.01
  Isper/Io 1000 μM: 23.05 ± 1.52
[2]; after UV
  spermine maximal potentiation: 1.6 ± 0.5
  spermine nH: 1.14 ± 0.16
  EC50: 93 ± 22.8 µM
[2]; before UV
  spermine maximal potentiation: 26.1 ± 2.5
  spermine nH: 1.29 ± 0.22
  EC50: 215 ± 63.2 µM

Source: publication PMC8342458, “GluN2A and GluN2B NMDA receptors use distinct allosteric routes” (Nature Communications, 2021)
